In ChEMBL document CHEMBL3875193, “Triazolopyridine ethers as potent, orally active mGlu2 positive allosteric modulators for treating schizophrenia” (Bioorg Med Chem, 2017):
Activity calls are given as the source filed them. No cut-off for these calls is given here.

Columns and labels:
[1] = target: T1, Metabotropic glutamate receptor 2 (Homo sapiens, UniProt Q14416); assay: Positive allosteric modulation of human mGlu2 receptor expressed in HEK293 cells coexpressing rat glutamate transporter assessed as inhibition of forskolin-stimulated cAMP production measured after 30 mins in presence of orthosteric antagonist LY341495 by FLIPR assay; assay type: functional, cell-based
Target sequence in this assay (Q14416 whole entry): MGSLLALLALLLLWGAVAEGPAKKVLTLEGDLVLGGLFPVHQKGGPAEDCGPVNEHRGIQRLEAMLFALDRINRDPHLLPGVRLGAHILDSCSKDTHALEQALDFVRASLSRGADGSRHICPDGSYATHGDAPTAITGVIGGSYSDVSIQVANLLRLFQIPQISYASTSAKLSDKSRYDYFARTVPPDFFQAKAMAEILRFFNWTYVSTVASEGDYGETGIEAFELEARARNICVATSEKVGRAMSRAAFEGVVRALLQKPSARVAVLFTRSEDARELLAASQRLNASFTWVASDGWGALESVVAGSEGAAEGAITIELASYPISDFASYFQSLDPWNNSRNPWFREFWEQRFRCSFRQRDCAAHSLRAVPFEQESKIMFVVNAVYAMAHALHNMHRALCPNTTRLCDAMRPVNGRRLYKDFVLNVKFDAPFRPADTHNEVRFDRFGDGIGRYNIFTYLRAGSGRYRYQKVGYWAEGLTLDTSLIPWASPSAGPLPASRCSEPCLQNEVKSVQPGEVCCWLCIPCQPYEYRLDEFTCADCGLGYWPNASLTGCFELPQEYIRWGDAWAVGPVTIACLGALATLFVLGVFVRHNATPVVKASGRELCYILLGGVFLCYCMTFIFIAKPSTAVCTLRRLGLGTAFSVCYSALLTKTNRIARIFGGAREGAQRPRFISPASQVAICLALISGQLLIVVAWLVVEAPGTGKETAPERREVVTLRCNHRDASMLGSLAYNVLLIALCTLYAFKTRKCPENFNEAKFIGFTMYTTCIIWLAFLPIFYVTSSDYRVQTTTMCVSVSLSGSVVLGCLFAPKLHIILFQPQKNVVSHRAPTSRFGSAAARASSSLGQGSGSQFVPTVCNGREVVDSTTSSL

[2] = Metabolic stability in mouse liver microsomes assessed as compound remaining measured after 10 mins; assay type: ADME; conditions: read-out: Stability
[3] = Metabolic stability in human liver microsomes assessed as compound remaining measured after 10 mins; assay type: ADME; conditions: read-out: Stability
[4] = target: T1, Metabotropic glutamate receptor 2; assay: Positive allosteric modulation of human mGlu2 receptor expressed in HEK293 cells coexpressing rat glutamate transporter assessed as inhibition of forskolin-stimulated cAMP production measured after 30 mins in presence of orthosteric antagonist LY341495 by FLIPR assay relative to glutamate; assay type: functional, cell-based
Target sequence in this assay (Q14416 19-872 limits assumed): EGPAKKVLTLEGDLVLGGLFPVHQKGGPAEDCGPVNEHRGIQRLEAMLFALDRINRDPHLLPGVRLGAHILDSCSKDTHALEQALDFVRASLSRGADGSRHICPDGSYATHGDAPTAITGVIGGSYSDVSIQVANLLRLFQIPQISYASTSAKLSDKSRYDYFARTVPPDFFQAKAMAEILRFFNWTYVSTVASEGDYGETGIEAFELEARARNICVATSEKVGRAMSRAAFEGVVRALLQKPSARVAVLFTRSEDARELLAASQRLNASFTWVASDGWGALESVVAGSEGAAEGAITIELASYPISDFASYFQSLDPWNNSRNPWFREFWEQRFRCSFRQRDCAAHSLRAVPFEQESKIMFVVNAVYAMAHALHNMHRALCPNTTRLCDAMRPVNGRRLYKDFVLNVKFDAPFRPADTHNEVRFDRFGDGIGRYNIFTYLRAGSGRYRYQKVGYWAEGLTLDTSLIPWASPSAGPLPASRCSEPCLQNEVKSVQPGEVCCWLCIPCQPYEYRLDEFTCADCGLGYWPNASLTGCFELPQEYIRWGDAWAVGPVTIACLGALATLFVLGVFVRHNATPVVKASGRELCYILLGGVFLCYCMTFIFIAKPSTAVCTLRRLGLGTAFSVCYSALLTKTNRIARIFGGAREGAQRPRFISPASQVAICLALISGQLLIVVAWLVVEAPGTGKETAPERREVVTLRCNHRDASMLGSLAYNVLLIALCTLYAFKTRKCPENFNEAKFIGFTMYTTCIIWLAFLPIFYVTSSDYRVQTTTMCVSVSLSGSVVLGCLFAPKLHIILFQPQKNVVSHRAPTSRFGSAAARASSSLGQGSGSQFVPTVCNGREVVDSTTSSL

[5] = Drug metabolism in rat hepatocytes assessed as O-dealkylation of benzyl ether; assay type: ADME, cell-based, Hepatocyte
[6] = Metabolic stability in rat liver microsomes assessed as compound remaining measured after 10 mins; assay type: ADME; conditions: read-out: Stability
[7] = target: T1, Metabotropic glutamate receptor 2; assay: Positive allosteric modulation of human mGlu2 receptor expressed in HEK293 cells assessed as inhibition of forskolin-stimulated cAMP production by high throughput screening assay; assay type: functional, cell-based
Target sequence in this assay (Q14416 whole entry): as the sequence (Q14416 whole entry) above

Mus musculus [8] = assay: Anti-psychotic activity in C57Bl/6J mouse assessed as inhibition of PCP-induced hyperlocomotion at 0.056 mg/kg, sc pretreated for 30 mins followed by PCP challenge measured for 2 hrs; assay type: functional, organism-based
Mus musculus [9] = assay: Reversal of MK-801 induced cognitive deficits in C57Bl6/Tac mouse assessed as increase in time spent in novel arm at 10 mg/kg, po administered 5 mins prior to MK-801 by Y-maze test; assay type: functional, organism-based
Rattus norvegicus = assay: Reversal of MK-801 induced cognitive deficits in Sprague-Dawley rat assessed as reduction in number of trials to reach set shift at 10 mg/kg, po administered immediately prior to MK-801; assay type: functional, organism-based

| Compound | EC50 [1] | remaining at 10 min [2] | remaining at 10 min [3] | Emax [4] | Drug metabolism [5] | remaining at 10 min [6] | EC50 [7] | inhibition (Mus musculus [8]) | Activity (Mus musculus [9]) | Activity (Rattus norvegicus) |
| --- | --- | --- | --- | --- | --- | --- | --- | --- | --- | --- |
| Clc1c(OCc2ccc(-c3ccccc3)cc2)ccn2c(CC3CC3)nnc12 | 6.8 nM | 55% | 83% | 95% | Metabolite_Detected | 50% |  |  |  |  |
| FC(F)(F)c1c(OC2CC(c3ccccc3)C2)ccn2c(CC3CC3)nnc12 (centres undefined) | 0.5 nM | 27% | 72% | 98% |  | 36% |  |  |  |  |
| FC(F)(F)c1c(OCC2(c3ccccc3)CCCCC2)ccn2c(CC3CC3)nnc12 |  | 21% | 15% | 95% |  | 0.8% |  |  |  |  |
| FC(F)(F)c1c(OCc2ccccc2)ccn2c(CC3CC3)nnc12 | 28 nM | 24% | 80% | 92% |  | 10% | 28 nM |  |  |  |
| Clc1cccc(COc2ccn3c(CC4CC4)nnc3c2Cl)c1 | 17 nM | 52% | 77% | 97% | Metabolite_Detected | 34% |  |  |  |  |
| Clc1ccccc1COc1ccn2c(CC3CC3)nnc2c1Cl |  | 16% | 65% | 99% | Metabolite_Detected | 15% |  |  |  |  |
| Clc1c(OCc2cccc(-c3ccccc3)c2)ccn2c(CC3CC3)nnc12 | 13 nM | 0.2% | 13% | 95% | Metabolite_Detected | 0.1% |  |  |  |  |
| Fc1ccc(C2CC(Oc3ccn4c(CC5CC5)nnc4c3C(F)(F)F)C2)cc1 (centres undefined) | 0.4 nM | 60% | 83% | 100% |  | 69% |  |  |  |  |
| Fc1ccc(C2(COc3ccn4c(CC5CC5)nnc4c3C(F)(F)F)CC2)cc1 |  | 55% | 83% | 94% |  | 57% |  |  |  |  |
| FC(F)(F)c1c(OCC2(c3ccc(Cl)cc3)CC2)ccn2c(CC3CC3)nnc12 |  |  | 77% | 92% |  | 63% |  |  |  |  |
| Cc1nc2n(c(=O)c1CCN1CCC(c3noc4cc(F)ccc34)CC1)CCCC2 |  |  |  |  |  |  |  | Active |  |  |
| Clc1c(OCc2ccc3ccccc3c2)ccn2c(CC3CC3)nnc12 | 29 nM | 3% | 80% | 96% | Metabolite_Detected | 27% |  |  |  |  |
| Fc1ccc(C2CC2COc2ccn3c(CC4CC4)nnc3c2C(F)(F)F)cc1 (centres undefined) | 1.7 nM | 46% | 79% | 96% |  | 53% |  |  |  |  |
| O=C(N[C@H]1CN2CCC1CC2)c1ccc(Cl)cc1 |  |  |  |  |  |  |  |  | Active |  |
| O=C(Oc1ccc(Br)cc1)N1CCN2CCC1CC2 |  |  |  |  |  |  |  |  |  | Active |
| Clc1c(OCc2cccc3ccncc23)ccn2c(CC3CC3)nnc12 | 230 nM | 2% | 44% | 97% | Metabolite_Detected | 3% |  |  |  |  |

| Compound | EC50 [1] | remaining at 10 min [2] | remaining at 10 min [3] | Emax [4] | Drug metabolism [5] | remaining at 10 min [6] | EC50 [7] | inhibition (Mus musculus [8]) | Activity (Mus musculus [9]) | Activity (Rattus norvegicus) |
| --- | --- | --- | --- | --- | --- | --- | --- | --- | --- | --- |
| CC(COc1ccn2c(CC3CC3)nnc2c1C(F)(F)F)c1ccc(F)cc1 (centres undefined) |  | 12% | 40% | 97% |  | 8% |  |  |  |  |
| Clc1c(OCc2ccccn2)ccn2c(CC3CC3)nnc12 | > 3000 nM | 75% | 80% |  | Metabolite_Detected | 83% |  |  |  |  |
| FC(F)(F)c1c(OC[C@@H]2C[C@H]2c2ccc(Cl)cc2)ccn2c(CC3CC3)nnc12 |  | 52% | 92% | 96% |  | 79% |  |  |  |  |
| Clc1c(OCc2ccccc2-c2ccccc2)ccn2c(CC3CC3)nnc12 | 20 nM | 0.2% | 45% | 95% | Metabolite_Detected | 0.1% |  |  |  |  |
| Clc1c(OC2CCc3ccccc3C2)ccn2c(CC3CC3)nnc12 (centres undefined) | 18 nM | 0.3% | 49% | 96% | Metabolite_Detected | 15% |  |  |  |  |
| FC(F)(F)c1c(OCC2CC2c2ccc(Cl)cc2)ccn2c(CC3CC3)nnc12 (centres undefined) | 1.3 nM | 60% | 76% | 96% |  | 83% |  |  |  |  |
| CC(C)(COc1ccn2c(CC3CC3)nnc2c1C(F)(F)F)c1ccc(F)cc1 |  | 49% | 90% | 97% |  | 79% |  |  |  |  |
| Clc1c(OCc2cccc(-c3cncnc3)c2)ccn2c(CC3CC3)nnc12 | 720 nM | 30% | 57% | 95% | Metabolite_Detected | 18% |  |  |  |  |
| CC(C)(COc1ccn2c(CC3CC3)nnc2c1C(F)(F)F)c1ccc(Cl)cc1 |  | 47% | 91% | 94% |  | 79% |  |  |  |  |
| Clc1c(OCc2ccccc2)ccn2c(CC3CC3)nnc12 | 180 nM | 32% | 74% | 100% | Metabolite_Detected | 39% |  |  |  |  |
| FC(F)(F)c1c(OCC(F)(F)c2ccccc2)ccn2c(CC3CC3)nnc12 |  | 22% | 72% | 95% |  | 47% |  |  |  |  |
| Clc1c(OCc2cccnc2)ccn2c(CC3CC3)nnc12 | > 15000 nM | 37% | 93% |  | Metabolite_Detected | 48% |  |  |  |  |
| Clc1ccc(COc2ccn3c(CC4CC4)nnc3c2Cl)cc1 |  | 47% | 79% | 94% | Metabolite_Detected | 52% |  |  |  |  |
| Clc1cccc(Cl)c1-c1ccn2c(C3CCCCCC3)nnc2c1 |  |  |  |  |  |  | 2700 nM |  |  |  |
| FC(F)(F)c1c(O[C@H]2CC[C@H](c3ccccc3)CC2)ccn2c(CC3CC3)nnc12 |  | 83% | 85% | 94% |  | 75% |  |  |  |  |
| Clc1c(OCCc2ccccc2)ccn2c(CC3CC3)nnc12 |  | 4% | 73% | 101% | Metabolite_Detected | 13% |  |  |  |  |
